Source: US20230285307A1, “Dispersible Tablet Formulations Comprising Dolutegravir” (ViiV Healthcare Company, priority 2020, published 2023)

Legend:
[1] = Dolutegravir solubility in the presence of monovalent and divalent ions; type: physicochemical; conditions: thermodynamic from solid, 20 mg in 12 ml
Experimental: Solubility was determined by dissolving 20 mg of dolutegravir into 12 ml of water containing the specified ion (see Table 1) at a concentration of 500 ppm.

[2] = Solubility of dolutegravir in types of potable water (FIG. 1); type: physicochemical; conditions: water with no ions present (purified water) vs other types of potable water
Excerpt: The solubility of dolutegravir is affected by the use of different types of potable water, for example purified water, tap water and different brands of bottled water (see FIG. 1). The reason for this difference in solubility is believed to be due to the presence of ions typically found in water. When water with no ions present (purified water) is used to disperse dolutegravir, the solubility of dolutegravir is increased and a significant bitter taste may be observed.

solubility ([1]; aqueous buffer, water containing calcium ion 500 ppm): 30 µg/mL
solubility ([1]; aqueous buffer, water containing magnesium ion 500 ppm): 210 µg/mL
solubility ([1]; aqueous buffer, water containing potassium ion 500 ppm): 780 µg/mL
solubility ([1]; aqueous buffer, water containing sodium ion 500 ppm): 460 µg/mL
solubility ([1]; no ion (purified water)): 1200 µg/mL
solubility of dolutegravir [2]: increased
SMILES: C[C@@H]1CCO[C@H]2Cn3cc(C(=O)NCc4ccc(F)cc4F)c(=O)c(O)c3C(=O)N12 [Dolutegravir, (4RX,12aS)-N-[(2,4-difluorophenyl)methyl]-7-hydroxy-4-methyl-6,8-dioxo-3,4,12,12a-tetrahydro-2H-pyrido[5,6]pyrazino[2,6-b][1,3]oxazine-9-carboxamide]
